From US10918651B2, “Method for lowering thyrotropin levels in adults” (University of Louisiana at Lafayette, priority 2016, dated 2021)

Key:
[1] = tested on: thyroid stimulating hormone (TSH)
Experimental: A study was performed of this invention using forty-eight male college-aged volunteers. The participants were divided into 4 groups of 12 subjects. The groups reported to the lab after an overnight fast and were then administered the following: 200 mg of Caffeine, 250 mg of A-GPC, 500 mg of A-GPC or placebo. One hour and two hours post administration blood was drawn from a vein in the antecubital space into a serum separator tube, this was allowed to stand for 15 minutes, then centrifuged and the serum drawn off and frozen at −35 degrees Celsius for later evaluation.
At the conclusion of data collection, the serum aliquots were thawed and a commercially available high-sensitivity ELISA was uses to quantify TSH levels (Eagle Biosciences TSH Ultrasensitive ELISA kit). Samples were tested in duplicate with inter and intra place CV % of less than 10. A repeated measures Anova was used to assess TSH level by group.

[2] = in vivo; cited from earlier work
dopamine receptors = details: chronic administration, aging mice; cited from earlier work

SMILES | TSH blood levels (effect) ([1]; 250 mg A-GPC, single administration) | TSH level, group average ([1]; 500 mg A-GPC group, 12 males) | number of males exhibiting TSH levels lower than 2.0 ([1]; 500 mg A-GPC group, 12 males) | crossing the blood brain barrier [2] | incorporation into brain phospholipids after administration [2] | dopamine receptors in the brain (dopamine receptors)
C[N+](C)(C)CCOP(=O)([O-])OC[C@H](O)CO [A-GPC, Alpha Glycerylphosphoryl Choline] | insufficient to reduce blood TSH | 2.3 | 5 of the 12 | capable of crossing the blood brain barrier | incorporated into brain phospholipids within twenty-four hours | –
C[N+](C)(C)CCOP(=O)(O)OP(=O)([O-])OC[C@H]1O[C@@H](n2ccc(N)nc2=O)[C@H](O)[C@@H]1O [CDP-choline] | – | – | – | – | – | increase dopamine receptors in the brain
